# Test results published in patent publication US10787452B2 (Vertex Pharmaceuticals Incorporated, priority 2012, dated 2020).
# Test system: HCT116 colorectal cancer cells
# Experiment: Cisplatin sensitization assay (96 h cell viability MTS);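 also: compound concentration needed to lower the Cisplatin-alone IC50 by a set fold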
# Type: cell-based
# Settings: 96 h MTS, compound plus Cisplatin
# Summary of the method: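 HCT116 cells were co-treated with compound and cisplatin, each in 2-fold serial dilutions from a 10 μM top final concentration, as a full matrix. After 96 h at 37 °C, 5% CO2, viability was read by MTS following a 1 h incubation with reagent.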
row,SMILES,Cisplatin Sensitization Assay
1,"CN(C)C1CN(C(=O)C2CCN(c3c(F)cncc3NC(=O)c3c(N)nn4cc(F)cnc34)CC2)C1 [I-G-22, 2-amino-N-(4-(4-(3-(dimethylamino)azetidine-1-carbonyl)piperidin-1-yl)-5-fluoropyridin-3-yl)-6-fluoropyrazolo[1,5-a]pyrimidine-3-carboxamide]",+++ (Compounds with a Cisplatin sensitization value of <0.02 μM are marked with “+++.”)
2,"Cn1nccc1-c1ccncc1NC(=O)c1c(N)nn2cc(F)cnc12 [I-C-57, 2-amino-6-fluoro-N-(4-(1-methyl-1H-pyrazol-5-yl)pyridin-3-yl)pyrazolo[1,5-a]pyrimidine-3-carboxamide]",+++ (Compounds with a Cisplatin sensitization value of <0.02 μM are marked with “+++.”)
3,"Nc1nn2cc(Cl)cnc2c1C(=O)Nc1cnccc1N1CCC(N2CCn3ccnc3C2)CC1 [I-N-102, 2-amino-6-chloro-N-(4-(4-(5,6-dihydroimidazo[1,2-a]pyrazin-7(8H)-yl)piperidin-1-yl)pyridin-3-yl)pyrazolo[1,5-a]pyrimidine-3-carboxamide]",++ (Compounds with a Cisplatin sensitization value >0.02 μM but <0.2 μM are marked with “++.”)
4,"Nc1nn2cc(F)cnc2c1C(=O)Nc1cnccc1N1CCN([C@@H]2CCOC2)CC1 [I-N-10, (R)-2-amino-6-fluoro-N-(4-(4-(tetrahydrofuran-3-yl)piperazin-1-yl)pyridin-3-yl)pyrazolo[1,5-a]pyrimidine-3-carboxamide]",++ (Compounds with a Cisplatin sensitization value >0.02 μM but <0.2 μM are marked with “++.”)
5,"Nc1nn2cc(F)cnc2c1C(=O)Nc1cncc(F)c1N1CCC(C(=O)N2CCC(N3CCCCC3)C2)CC1 (centres unmarked) [I-G-64, 2-amino-6-fluoro-N-(5-fluoro-4-(4-(3-(piperidin-1-yl)pyrrolidine-1-carbonyl)piperidin-1-yl)pyridin-3-yl)pyrazolo[1,5-a]pyrimidine-3-carboxamide]",+++ (Compounds with a Cisplatin sensitization value of <0.02 μM are marked with “+++.”)
6,"CN1CCN(c2cc(N)ncc2NC(=O)c2c(N)nn3cc(Cl)cnc23)CC1 [I-N-50, 2-amino-N-(6-amino-4-(4-methylpiperazin-1-yl)pyridin-3-yl)-6-chloropyrazolo[1,5-a]pyrimidine-3-carboxamide]",+ (Compounds with a Cisplatin sensitization value >0.2 μM but <5 μM are marked with “+.”)
7,"COC1CN(C(=O)C2CCN(c3c(F)cncc3NC(=O)c3c(N)nn4cc(F)cnc34)CC2)C1 [I-G-21, 2-amino-6-fluoro-N-(5-fluoro-4-(4-(3-methoxyazetidine-1-carbonyl)piperidin-1-yl)pyridin-3-yl)pyrazolo[1,5-a]pyrimidine-3-carboxamide]",+++ (Compounds with a Cisplatin sensitization value of <0.02 μM are marked with “+++.”)
8,"Nc1nn2cc(F)cnc2c1C(=O)Nc1cncc(F)c1N1CCN(C(=O)C23CCN(CC2)CC3)CC1 [I-N-134, 2-amino-6-fluoro-N-(5-fluoro-4-(4-(quinuclidine-4-carbonyl)piperazin-1-yl)pyridin-3-yl)pyrazolo[1,5-a]pyrimidine-3-carboxamide]",+ (Compounds with a Cisplatin sensitization value >0.2 μM but <5 μM are marked with “+.”)
9,"Nc1nn2cc(F)cnc2c1C(=O)Nc1cncc(F)c1N1CCC(C(=O)N2CC(F)C2)CC1 [I-G-74, 2-amino-6-fluoro-N-(5-fluoro-4-(4-(3-fluoroazetidine-1-carbonyl)piperidin-1-yl)pyridin-3-yl)pyrazolo[1,5-a]pyrimidine-3-carboxamide]",+++ (Compounds with a Cisplatin sensitization value of <0.02 μM are marked with “+++.”)
10,"CN(C)C1CCN(c2ccncc2NC(=O)c2c(N)nn3cc(Cl)cnc23)CC1 [I-N-37, 2-amino-6-chloro-N-(4-(4-(dimethylamino)piperidin-1-yl)pyridin-3-yl)pyrazolo[1,5-a]pyrimidine-3-carboxamide]",++ (Compounds with a Cisplatin sensitization value >0.02 μM but <0.2 μM are marked with “++.”)
11,"Nc1nn2cc(F)cnc2c1C(=O)Nc1cnccc1C1CCN(C(=O)C2CC2)CC1 [I-C-70, 2-amino-N-(4-(1-(cyclopropanecarbonyl)piperidin-4-yl)pyridin-3-yl)-6-fluoropyrazolo[1,5-a]pyrimidine-3-carboxamide]",+++ (Compounds with a Cisplatin sensitization value of <0.02 μM are marked with “+++.”)
12,"CC1(S(C)(=O)=O)CCN(c2ccncc2NC(=O)c2c(N)nn3cc(F)cnc23)CC1 [I-N-243, 2-amino-6-fluoro-N-(4-(4-methyl-4-(methylsulfonyl)piperidin-1-yl)pyridin-3-yl)pyrazolo[1,5-a]pyrimidine-3-carboxamide]",+++ (Compounds with a Cisplatin sensitization value of <0.02 μM are marked with “+++.”)
13,"CN1CCN(C(=O)C2(C)CCN(c3c(F)cncc3NC(=O)c3c(N)nn4cc(F)cnc34)CC2)CC1 [I-G-54, 2-amino-6-fluoro-N-(5-fluoro-4-(4-methyl-4-(4-methylpiperazine-1-carbonyl)piperidin-1-yl)pyridin-3-yl)pyrazolo[1,5-a]pyrimidine-3-carboxamide]",+++ (Compounds with a Cisplatin sensitization value of <0.02 μM are marked with “+++.”)
14,"CS(=O)(=O)CC1CCN(c2ccncc2NC(=O)c2c(N)nn3cc(F)cnc23)CC1 [I-N-215, 2-amino-6-fluoro-N-(4-(4-((methylsulfonyl)methyl)piperidin-1-yl)pyridin-3-yl)pyrazolo[1,5-a]pyrimidine-3-carboxamide]",+++ (Compounds with a Cisplatin sensitization value of <0.02 μM are marked with “+++.”)
15,"Nc1nn2cc(F)cnc2c1C(=O)Nc1cncc(F)c1N1CCC(N2CCCC2=O)CC1 [I-N-147, 2-amino-6-fluoro-N-(5-fluoro-4-(4-(2-oxopyrrolidin-1-yl)piperidin-1-yl)pyridin-3-yl)pyrazolo[1,5-a]pyrimidine-3-carboxamide]",+++ (Compounds with a Cisplatin sensitization value of <0.02 μM are marked with “+++.”)
16,"CCOC1CN(C(=O)C2CCN(c3ccncc3NC(=O)c3c(N)nn4cc(F)cnc34)CC2)C1 [I-G-91, 2-amino-N-(4-(4-(3-ethoxyazetidine-1-carbonyl)piperidin-1-yl)pyridin-3-yl)-6-fluoropyrazolo[1,5-a]pyrimidine-3-carboxamide]",+++ (Compounds with a Cisplatin sensitization value of <0.02 μM are marked with “+++.”)
17,"COC1(C)CN(C(=O)C2CCN(c3c(F)cncc3NC(=O)c3c(N)nn4cc(F)cnc34)CC2)C1 [I-G-75, 2-amino-6-fluoro-N-(5-fluoro-4-(4-(3-methoxy-3-methylazetidine-1-carbonyl)piperidin-1-yl)pyridin-3-yl)pyrazolo[1,5-a]pyrimidine-3-carboxamide]",+++ (Compounds with a Cisplatin sensitization value of <0.02 μM are marked with “+++.”)
18,"N#CCc1cnc2c(C(=O)Nc3cnccc3OC3CCOCC3)c(N)nn2c1 [I-O-30, 2-amino-6-(cyanomethyl)-N-(4-((tetrahydro-2H-pyran-4-yl)oxy)pyridin-3-yl)pyrazolo[1,5-a]pyrimidine-3-carboxamide]",+++ (Compounds with a Cisplatin sensitization value of <0.02 μM are marked with “+++.”)
19,"CN1CCN(C(=O)c2ccc(-c3c(F)cncc3NC(=O)c3c(N)nn4cc(F)cnc34)cc2)CC1 [I-C-43, 2-amino-6-fluoro-N-(5-fluoro-4-(4-(4-methylpiperazine-1-carbonyl)phenyl)pyridin-3-yl)pyrazolo[1,5-a]pyrimidine-3-carboxamide]",+++ (Compounds with a Cisplatin sensitization value of <0.02 μM are marked with “+++.”)
20,"CN(C)C(=O)C1CCCN(c2ccncc2NC(=O)c2c(N)nn3cc(F)cnc23)C1 (centres unmarked) [I-N-290, 2-amino-N-(4-(3-(dimethylcarbamoyl)piperidin-1-yl)pyridin-3-yl)-6-fluoropyrazolo[1,5-a]pyrimidine-3-carboxamide]",++ (Compounds with a Cisplatin sensitization value >0.02 μM but <0.2 μM are marked with “++.”)
21,"Cc1nonc1N1CCN(c2ccncc2NC(=O)c2c(N)nn3cc(F)cnc23)CC1 [I-N-260, 2-amino-6-fluoro-N-(4-(4-(4-methyl-1,2,5-oxadiazol-3-yl)piperazin-1-yl)pyridin-3-yl)pyrazolo[1,5-a]pyrimidine-3-carboxamide]",+++ (Compounds with a Cisplatin sensitization value of <0.02 μM are marked with “+++.”)
22,"Cc1cncc(NC(=O)c2c(N)nn3cc(F)cnc23)c1N1CCN(C2COC2)CC1 [I-N-16, 2-amino-6-fluoro-N-(5-methyl-4-(4-(oxetan-3-yl)piperazin-1-yl)pyridin-3-yl)pyrazolo[1,5-a]pyrimidine-3-carboxamide]",+++ (Compounds with a Cisplatin sensitization value of <0.02 μM are marked with “+++.”)
23,"CC(C)Oc1ccncc1NC(=O)c1c(N)nn2cc(CC#N)cnc12 [I-O-35, 2-amino-6-(cyanomethyl)-N-(4-isopropoxypyridin-3-yl)pyrazolo[1,5-a]pyrimidine-3-carboxamide]",+++ (Compounds with a Cisplatin sensitization value of <0.02 μM are marked with “+++.”)
24,"Nc1nn2cc(F)cnc2c1C(=O)Nc1cnccc1-n1cccn1 [I-N-26, N-(4-(1H-pyrazol-1-yl)pyridin-3-yl)-2-amino-6-fluoropyrazolo[1,5-a]pyrimidine-3-carboxamide]",+ (Compounds with a Cisplatin sensitization value >0.2 μM but <5 μM are marked with “+.”)
25,"CS(=O)(=O)C1CCN(c2c(F)cncc2NC(=O)c2c(N)nn3cc(F)cnc23)CC1 [I-N-165, 2-amino-6-fluoro-N-(5-fluoro-4-(4-(methylsulfonyl)piperidin-1-yl)pyridin-3-yl)pyrazolo[1,5-a]pyrimidine-3-carboxamide]",+++ (Compounds with a Cisplatin sensitization value of <0.02 μM are marked with “+++.”)
26,"Nc1nn2cc(F)cnc2c1C(=O)Nc1cncc(F)c1N1CCC(C(=O)N2CCNC3(CC3)C2)CC1 [I-G-28, N-(4-(4-(4,7-diazaspiro[2.5]octane-7-carbonyl)piperidin-1-yl)-5-fluoropyridin-3-yl)-2-amino-6-fluoropyrazolo[1,5-a]pyrimidine-3-carboxamide]",+++ (Compounds with a Cisplatin sensitization value of <0.02 μM are marked with “+++.”)
